Reference: patent US4312867A, “Antibacterial compounds, processes for their preparation and compositions containing them” (Beecham Group Limited, priority 1979, dated 1982)
Converted amounts (≈) assume the structure as drawn. Read-outs that look alike come from different tables or passages of the source.

Columns and labels:
Ps. aeruginosa 10662 = experiment: MIC human bacteria (Table 1), serial dilution in nutrient agar; format: cell-based; details: Pseudomonas aeruginosa, nutrient agar with 5% chocolated horse blood
[1] = test system: Strep suis (group D) SPS11; experiment: MIC veterinary bacteria (Table 2), serial dilution in agar; format: cell-based; details: diagnostic sensitivity test agar
Strep pneumoniae CN33 = experiment: MIC human bacteria (Table 1), serial dilution in nutrient agar; format: cell-based; details: nutrient agar with 5% chocolated horse blood
Past multocida PA1 = experiment: MIC veterinary bacteria (Table 2), serial dilution in agar; format: cell-based; details: diagnostic sensitivity test agar
[2] = test system: Corynebacterium pyogenes CY1; experiment: as above; format: cell-based; details: Trueperella pyogenes, diagnostic sensitivity test agar
E. coli E1 = experiment: as above; format: cell-based; details: Escherichia coli, diagnostic sensitivity test agar
[3] = test system: Staph aureus 152 (pen. sens); experiment: as above; format: cell-based; details: Staphylococcus aureus, diagnostic sensitivity test agar
[4] = test system: Erysipelothrix rhusiopathiae NCTC 8163; experiment: as above; format: cell-based; details: NCTC8163; Erysipelothrix rhusiopathiae NCTC 8163; diagnostic sensitivity test agar; read-out: MIC
Bacillus subtilis 6633 = experiment: MIC human bacteria (Table 1), serial dilution in nutrient agar; format: cell-based; details: nutrient agar with 5% chocolated horse blood
[5] = Serum binding by ultrafiltration of porcine serum; format: in vitro ADME; details: pig, 8 mcg/ml, microbiological assay, read-out: % bound to pig serum (converted)
Description: Serum binding was assessed by ultrafiltration of porcine serum containing compounds at 8 mcg/ml, and through an Amicon CF50A ultrafiltration cone. Separation of ultrafiltrate was achieved by centrifugation. Unbound concentrations of compound were measured in the ultrafiltrate by microbiological assay (B. subtilis ATCC 6633) against standards prepared in saline.

E. coli NCTC 10418 [6] = experiment: MIC human bacteria (Table 1), serial dilution in nutrient agar; format: cell-based; details: Escherichia coli, NCTC10418; E. coli NCTC 10418; nutrient agar with 5% chocolated horse blood; read-out: MIC
Staph aureus Russell = experiment: as above; format: cell-based; details: Staphylococcus aureus, nutrient agar with 5% chocolated horse blood
Strep pyogenes C 2761 = experiment: as above; format: cell-based; details: nutrient agar with 5% chocolated horse blood
[7] = test system: Corynebacterium xerosis 9755; experiment: as above; format: cell-based; details: nutrient agar with 5% chocolated horse blood, read-out: MIC
Staph aureus W2827 = experiment: as above; format: cell-based; details: Staphylococcus aureus, nutrient agar with 5% chocolated horse blood
Sarcina lutea 8340 = experiment: as above; format: cell-based; details: Micrococcus luteus, nutrient agar with 5% chocolated horse blood, read-out: MIC
Strep uberis SPU1 = experiment: MIC veterinary bacteria (Table 2), serial dilution in agar; format: cell-based; details: diagnostic sensitivity test agar
[8] = test system: Staph aureus B4 (pen. resis); experiment: as above; format: cell-based; details: Staphylococcus aureus; Staph aureus B4 (pen. resis); diagnostic sensitivity test agar; read-out: MIC
Past multocida PA2 = experiment: as above; format: cell-based; details: diagnostic sensitivity test agar
Staph aureus Oxford [9] = experiment: as above; format: cell-based; details: Staphylococcus aureus; Staph aureus Oxford; diagnostic sensitivity test agar; read-out: MIC
Strep pyogenes B 2788 = experiment: MIC human bacteria (Table 1), serial dilution in nutrient agar; format: cell-based; details: nutrient agar with 5% chocolated horse blood
S. typhimurium S18 = experiment: MIC veterinary bacteria (Table 2), serial dilution in agar; format: cell-based; details: Salmonella enterica, diagnostic sensitivity test agar
K. aerogenes A = experiment: MIC human bacteria (Table 1), serial dilution in nutrient agar; format: cell-based; details: Klebsiella aerogenes, nutrient agar with 5% chocolated horse blood
E. coli NCTC 10418 [10] = experiment: MIC veterinary bacteria (Table 2), serial dilution in agar; format: cell-based; details: Escherichia coli, NCTC10418; E. coli NCTC 10418; diagnostic sensitivity test agar; read-out: MIC
E. coli ESS = experiment: MIC human bacteria (Table 1), serial dilution in nutrient agar; format: cell-based; details: Escherichia coli
Strep dysgalaciae SPD1 = experiment: MIC veterinary bacteria (Table 2), serial dilution in agar; format: cell-based; details: diagnostic sensitivity test agar
Staph aureus Oxford [11] = experiment: MIC human bacteria (Table 1), serial dilution in nutrient agar; format: cell-based; details: Staphylococcus aureus, nutrient agar with 5% chocolated horse blood
Bord bronchiseptica B09 = experiment: MIC veterinary bacteria (Table 2), serial dilution in agar; format: cell-based; details: diagnostic sensitivity test agar
P. mirabilis 889 = experiment: MIC human bacteria (Table 1), serial dilution in nutrient agar; format: cell-based; details: Proteus mirabilis
[12] = test system: Pasteurella multocida 1633; experiment: as above; format: cell-based
Bord bronchiseptica B08 = experiment: MIC veterinary bacteria (Table 2), serial dilution in agar; format: cell-based; details: diagnostic sensitivity test agar
S. dublin S7 = experiment: as above; format: cell-based; details: Salmonella enterica, diagnostic sensitivity test agar
[13] = test system: Haemophilus influenzae Q1; experiment: MIC human bacteria (Table 1), serial dilution in nutrient agar; format: cell-based
Strep pyogenes A 64/848 = experiment: as above; format: cell-based; details: nutrient agar with 5% chocolated horse blood
Strep faecalis I = experiment: as above; format: cell-based; details: nutrient agar with 5% chocolated horse blood
Strep agalactiae SPA1 = experiment: MIC veterinary bacteria (Table 2), serial dilution in agar; format: cell-based; details: diagnostic sensitivity test agar
[14] = test system: Neisseria catarrhalis 1502; experiment: MIC human bacteria (Table 1), serial dilution in nutrient agar; format: cell-based; details: nutrient agar with 5% chocolated horse blood
[15] = test system: Haemophilus influenzae Wy21; experiment: as above; format: cell-based; details: Haemophilus influenzae Wy21; nutrient agar with 5% chocolated horse blood; read-out: MIC

SMILES	MIC (Ps. aeruginosa 10662) [µg/mL]	MIC [1] [µg/mL]	MIC (Strep pneumoniae CN33) [µg/mL]	MIC (Past multocida PA1) [µg/mL]	MIC (E. coli E1) [µg/mL]	MIC [3] [µg/mL]	MIC [4] [µg/mL]	MIC (Bacillus subtilis 6633) [µg/mL]	fraction unbound [5]	MIC (E. coli NCTC 10418 [6]) [µg/mL]	MIC (Staph aureus Russell) [µg/mL]	MIC (Strep pyogenes C 2761) [µg/mL]	MIC [7] [µg/mL]	MIC (Staph aureus W2827) [µg/mL]	MIC (Sarcina lutea 8340) [µg/mL]	MIC (Strep uberis SPU1) [µg/mL]	MIC [8] [µg/mL]	MIC (Past multocida PA2) [µg/mL]	MIC (Staph aureus Oxford [9]) [µg/mL]	MIC (Strep pyogenes B 2788) [µg/mL]	further results
C/C(=C\C(=O)OCCCCCCS(N)(=O)=O)CC1OCC(CC2OC2C(C)C(C)O)C(O)C1O (stereo not shown) [Example 2, 6-Sulphamoylhexyl monate A]	> 100	2.5 (≈ 4.92 µM)	0.2 (≈ 0.394 µM)	0.312 (≈ 0.615 µM)	> 80	1.25 (≈ 2.46 µM)	20 (≈ 39.4 µM)	0.5 (≈ 0.985 µM)	0.287	> 100	5 (≈ 9.85 µM)	1 (≈ 1.97 µM)	> 100	5 (≈ 9.85 µM)	> 100	0.625 (≈ 1.23 µM)	2.5 (≈ 4.92 µM)	0.039 (≈ 0.0768 µM)	2.5 (≈ 4.92 µM)	1 (≈ 1.97 µM)	MIC [2]: 10 µg/mL (≈ 19.7 µM); MIC (S. typhimurium S18): > 80 µg/mL; MIC (K. aerogenes A): > 100 µg/mL; MIC (E. coli NCTC 10418 [10]): > 80 µg/mL; MIC (E. coli ESS): 0.5 µg/mL (≈ 0.985 µM); MIC (Strep dysgalaciae SPD1): 0.625 µg/mL (≈ 1.23 µM); MIC (Staph aureus Oxford [11]): 5 µg/mL (≈ 9.85 µM); MIC (Bord bronchiseptica B09): 10 µg/mL (≈ 19.7 µM); MIC (P. mirabilis 889; 889): 50 µg/mL (≈ 98.5 µM); MIC ([12]; Pasteurella multocida 1633, nutrient agar with 5% chocolated horse blood, read-out: MIC): 2.5 µg/mL (≈ 4.92 µM); MIC (Bord bronchiseptica B08): 20 µg/mL (≈ 39.4 µM); MIC (S. dublin S7): > 80 µg/mL; MIC ([13]; Haemophilus influenzae, Q1): 0.1 µg/mL (≈ 0.197 µM); MIC (Strep pyogenes A 64/848): 0.5 µg/mL (≈ 0.985 µM); MIC (Strep faecalis I): > 100 µg/mL; MIC (Strep agalactiae SPA1): 1.25 µg/mL (≈ 2.46 µM)
C/C(=C\C(=O)OCCCCCCCCS(N)(=O)=O)CC1OCC(CC2OC2C(C)C(C)O)C(O)C1O (stereo not shown) [Example 3, 8-Sulphamoyloctyl monate A]	> 100	20 (≈ 37.3 µM)	0.5 (≈ 0.933 µM)	1.25 (≈ 2.33 µM)	> 80	0.625 (≈ 1.17 µM)	10 (≈ 18.7 µM)	0.2 (≈ 0.373 µM)	0.035	> 100	1 (≈ 1.87 µM)	1 (≈ 1.87 µM)	> 100	1 (≈ 1.87 µM)	> 100	1.25 (≈ 2.33 µM)	0.625 (≈ 1.17 µM)	0.156 (≈ 0.291 µM)	0.625 (≈ 1.17 µM)	1 (≈ 1.87 µM)	MIC [14]: 1 µg/mL (≈ 1.87 µM); MIC (S. typhimurium S18): > 80 µg/mL; MIC (K. aerogenes A): > 100 µg/mL; MIC (E. coli NCTC 10418 [10]): > 80 µg/mL; MIC (E. coli ESS; E. coli ESS, nutrient agar with 5% chocolated horse blood, read-out: MIC): 0.5 µg/mL (≈ 0.933 µM); MIC (Strep dysgalaciae SPD1): 2.5 µg/mL (≈ 4.67 µM); MIC (Staph aureus Oxford [11]): 1 µg/mL (≈ 1.87 µM); MIC (Bord bronchiseptica B09): 40 µg/mL (≈ 74.7 µM); MIC (P. mirabilis 889; P. mirabilis 889, nutrient agar with 5% chocolated horse blood, read-out: MIC): > 100 µg/mL; MIC ([12]; Pasteurella multocida, 1633): 1 µg/mL (≈ 1.87 µM); MIC [15]: 0.2 µg/mL (≈ 0.373 µM); MIC (Bord bronchiseptica B08): 80 µg/mL (≈ 149 µM); MIC (S. dublin S7): > 80 µg/mL; MIC ([13]; Haemophilus influenzae Q1, nutrient agar with 5% chocolated horse blood, read-out: MIC): 0.2 µg/mL (≈ 0.373 µM); MIC (Strep pyogenes A 64/848): 0.5 µg/mL (≈ 0.933 µM); MIC (Strep faecalis I): > 100 µg/mL; MIC (Strep agalactiae SPA1): 2.5 µg/mL (≈ 4.67 µM)
